Results taken from patent publication US11407741B2, “Compounds and their use as selective inhibitors of caspase-2” (priority 2017, dated 2022).
Where a SMILES comes first, the peptide text is derived from it. [ ]: non-standard residue; d: D form. The star is where a group is joined. Pro(3S-CH2tBu) = CC(C)(C)C[C@H]1CCN[C@@H]1C(=O)O; X4 = CN(Cc1ccccc1)C(=O)/C=C/C(=O)N(CC(=O)O)N*; X3 = O=C(O)CN(N*)C(=O)COc1c(F)cccc1F; Quinaldoyl = O=C(c1ccc2ccccc2n1)*

How the values were obtained:
[1] = target: T1, Caspase-2 (Homo sapiens, UniProt P42575); assay: Caspase-2 inhibition assay for irreversible inhibitors (kinact/KI, continuous method); assay type: biochemical; settings: for Selectivity for Caspase 2: comparison of kinact/KI ratios regarding caspase 2 and 3
T1 construct: the Caspase-2 and Caspase-3 are human recombinant active enzymes; purchased Enzo Life ALX-201-057-U100
T1 sequence (P42575 170-325 limits assumed): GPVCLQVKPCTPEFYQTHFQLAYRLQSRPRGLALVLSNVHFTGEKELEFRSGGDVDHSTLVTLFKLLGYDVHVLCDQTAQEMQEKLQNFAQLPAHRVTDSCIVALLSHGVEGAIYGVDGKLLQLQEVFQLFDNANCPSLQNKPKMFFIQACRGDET
T1 sequence (P42575 348-452 limits assumed): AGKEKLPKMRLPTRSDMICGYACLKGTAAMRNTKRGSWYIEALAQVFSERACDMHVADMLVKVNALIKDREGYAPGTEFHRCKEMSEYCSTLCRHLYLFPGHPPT
Description: (§1) The efficiency of the comparative compound Δ2Me-TRP601, that is an already known group II Caspase inhibitor (inhibitor of Caspase-2, Caspase-3 and Caspase-7), has been assessed by a similar protocol described in Chauvier et al., 2011 Cell Death Dis 2011, 2:e203.
(§2) In this example, the Caspase-2 and Caspase-3 are human recombinant active enzymes that are respectively provided by Enzo Life® (ALX-201-057-U100) and R&D Systems® (707-C3-010/CF).
Caspase-2 is used at a final concentration of 0.1 nM in a “Caspase-2 buffer” containing 20 mM HEPES (pH 7.4), 5 mM DTT, 2 mM EDTA, 0.1% CHAPS and 800 mM succinate. Caspase-3 is used at a final concentration of 0.5 nM in a “Caspase-3 buffer” containing 20 mM HEPES (pH 7.4), 0.1% CHAPS, 5 mM DTT, and 2 mM EDTA.
(§3) The peptide substrates used for the enzymatic activity measurements are Ac-DEVD-AMC and Ac-VDVAD-AMC commercialized by EnzoLife® (respectively referenced ALX-260-031-M005 and ALX-260-060-M005). They are fluorogenic due to the presence of their AMC (7-amino-4-methylcoumarin) end group. The releasing of AMC enables to follow the enzymatic activity in fluorescence unit RFU over time in a 96-wells microplate.
The fluorescence values are measured at 37° C. with a spectrofluorometer with a microplate reader BMG FLUOstar OPTIMA. This apparatus is driven by the software Biolise® and is equipped with thermoelectric cooling device by Peltier effect. The mathematical analyses of the experimental data are done with the software Kaleidagraph®.
The inhibitory properties of the tested compounds are evaluated by the determination of the kinact/KI ratio regarding either Caspase-2 or Caspase-3 wherein: • kinact is the maximal inactivation rate constant, and • KI is the dissociation constant according to:
Said ratio is measured according to the continuous method (Allison R D. Curr Protoc Protein Sci. 2001 May; Chapter 3:Unit 3.5.; Chauvier et al., 2011 Cell Death Dis 2:e203; Tan et al., J Med Chem 2015, […]).
Briefly, Caspases activities were determined by monitoring the hydrolysis of fluorogenic substrates (λexc=355 nm, λem=460 nm) as a function of time, in the presence of untreated Caspases (control) or Caspases that had been incubated with a test compound, for 30 min minimum at 37° C. using a BMG Fluostar microplate reader (black 96-well microplates) and the initial velocity (V0) was determined from the linear portion of the progress curve.
Substrates and compounds were previously dissolved in DMSO at 10 mM, with the final solvent concentration kept at lower 4% (v/v). V0, relative velocities, KM and IC50 were determined from experimental data using Mars data Analysis 2.0 and Kaleidagraph softwares.
Inhibitor binding affinity (dissociation constant, KI) and first-order rate constant (k3) parameters were determined for Caspase-2 and Caspase-3 using the progress curve method. The ratio k3/KI was obtained by fitting the experimental data to the equations (F.U., fluorescence unit): […]
A continuous method of determination of the kinact/KI ratio was used for evaluating the inhibitory activity of the tested compounds against Caspase-2 and Caspase-3.
The reaction mixture is prepared by letting the enzyme and the buffer incubate at 37° C.
The tested inhibitory compounds are prepared at different concentrations (¼ IC50; ½ IC50; IC50; 2 IC50; 4 IC50) and put in the microplate.
Then the reaction mixture comprising the enzyme, the buffer and the substrate is rapidly added in the wells.
The activities of the enzyme are measured between 45 and 60 minutes.
The RFU (Relative Fluorescence Units)=f(times) curves are traced for each concentration of tested molecule according to the following equation: ((((−V0)*(exp(−kobs*m0)))+V0)/kobs*)+RFU0
in which: • V0 corresponds to the initial rate (RFU·s^−1) in the concentration of 0 of the tested inhibitory compound; • kobs is the inactivation rate constant; • RFU0 is the fluorescence value at t=0 min; and • m0 is the variable i.e. the inhibitor concentration.

[2] = target: T2, Caspase-3 (Homo sapiens, UniProt P42574); assay: Caspase-3 inhibition assay for irreversible inhibitors (kinact/KI, continuous method); assay type: biochemical; settings: human recombinant Caspase-3 0.5 nM, 37° C.
T2 construct: the Caspase-2 and Caspase-3 are human recombinant active enzymes; purchased R&D Systems 707-C3-010/CF
T2 sequence (P42574 29-175 limits assumed): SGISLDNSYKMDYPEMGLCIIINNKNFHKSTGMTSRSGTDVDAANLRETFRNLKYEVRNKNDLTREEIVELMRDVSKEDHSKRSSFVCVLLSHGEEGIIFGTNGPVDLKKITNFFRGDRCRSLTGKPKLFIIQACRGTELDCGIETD
T2 sequence (P42574 176-277 limits assumed): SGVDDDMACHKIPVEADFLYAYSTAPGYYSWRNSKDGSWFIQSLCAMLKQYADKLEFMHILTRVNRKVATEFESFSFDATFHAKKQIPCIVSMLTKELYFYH
Description: as §1, §2
Caspase-2 is used at a final concentration of 0.1 nM in a “Caspase-2 buffer” containing 20 mM HEPES (pH 7.4), 5 mM DTT, 2 mM EDTA, 0.1% CHAPS and 800 mM succinate. […]
as §3, with “They are fluorogenic due to the presence of their AMC (7-amino-4-methylcoumarin) end group.” left out
The fluorescence values are measured at 37° C. with a spectrofluorometer with a microplate reader BMG FLUOstar OPTIMA. […]
The inhibitory properties of the tested compounds are evaluated by the determination of the kinact/KI ratio regarding either Caspase-2 or Caspase-3 wherein: • kinact is the maximal inactivation rate constant, and • KI is the dissociation constant according to: […]
The activities of the enzyme are measured between 45 and 60 minutes. […]

Compound | k3/KI Casp2 ([1]; human recombinant Caspase-2 0.1 nM, 37° C.) | Selectivity ratio (C2/C3) ([1]; ratio of k3/KI Casp2 to Casp3) | k3/KI Casp3 [2] | type of inhibition (irreversible) [1] | Selectivity for Caspase 2 [1]
CC(C)[C@H](NC(=O)c1ccc2ccccc2n1)C(=O)N[C@@H](CC(=O)O)C(=O)N[C@H](C(=O)N1CC[C@H](CC(C)(C)C)[C@H]1C(=O)N[C@@H](CC(=O)O)C(=O)COc1c(F)cccc1F)C(C)C (single isomer, unassigned) [Compound 2 enantiomer a] | 1 894 076 M^−1 · s^−1 | 721 | 2 625 M^−1 · s^−1 | – | –
CC(C)[C@H](NC(=O)[C@H](CC(=O)O)NC(=O)C(=O)Nc1ccccc1C(C)(C)C)C(=O)N1CC[C@H](CC(C)(C)C)[C@H]1C(=O)NN(CC(=O)O)C(=O)COc1c(F)cccc1F [Compound 6, (S)-3-(2-((2-(tert-butyl)phenyl)amino)-2-oxoacetamido)-4-(((S)-1-((2S,3S)-2-(2-(carboxymethyl)-2-(2-(2,6-difluorophenoxy)acetyl)hydrazinecarbonyl)-3-neopentylpyrrolidin-1-yl)-3-methyl-1-oxobutan-2-yl)amino)-4-oxobutanoic acid] | – | – | – | irreversible inhibitor | yes
CC(C)[C@H](NC(=O)c1ccc2ccccc2n1)C(=O)N[C@@H](CC(=O)O)C(=O)N[C@H](C(=O)N1CC[C@H](CC(C)(C)C)[C@H]1C(=O)NN(CC(=O)O)C(=O)COc1c(F)cccc1F)C(C)C [Compound 4, (S)-4-(((S)-1-((2S,3S)-2-(2-(carboxymethyl)-2-(2-(2,6-difluorophenoxy)acetyl)hydrazinecarbonyl)-3-neopentylpyrrolidin-1-yl)-3-methyl-1-oxobutan-2-yl)amino)-3-((S)-3-methyl-2-(quinoline-2-carboxamido)butanamido)-4-oxobutanoic acid] (Quinaldoyl-VDV[Pro(3S-CH2tBu)]-X3) | – | – | – | irreversible inhibitor | yes
CC(C)[C@H](NC(=O)c1ccc2ccccc2n1)C(=O)N[C@@H](CC(=O)O)C(=O)N[C@H](C(=O)N1CC[C@H](CC(C)(C)C)[C@H]1C(=O)NN(CC(=O)O)C(=O)/C=C/C(=O)N(C)Cc1ccccc1)C(C)C [Compound 5, (S)-4-(((S)-1-((2S,3S)-2-(2-((E)-4-(benzyl(methyl)amino)-4-oxobut-2-enoyl)-2-(carboxymethyl)hydrazinecarbonyl)-3-neopentylpyrrolidin-1-yl)-3-methyl-1-oxobutan-2-yl)amino)-3-((S)-3-methyl-2-(quinoline-2-carboxamido)butanamido)-4-oxobutanoic acid] (Quinaldoyl-VDV[Pro(3S-CH2tBu)]-X4) | – | – | – | irreversible inhibitor | yes
